Experimental data published in US11208468B2, “Methods and compositions for treating melanoma” (The Wistar Institute of Anatomy and Biology, priority 2016, dated 2021).

System: melanoma patient PBMC samples WM35, WM3457 and 3451
Assay: Proliferative response, 3HTdR incorporation assay with peptide-pulsed monocytes
Assay type: cell-based, human
Conditions: monocytes pulsed 8 hours with 25 μM peptide, cultured with PBMC for 5 days; each sample assayed
Method: The peptides were screened for T-helper sequences (Th): Peptide P8 is amino acids residues 608-622 of BRAF, i.e., […] (SEQ ID NO: 15). Peptide P9 is amino acids residues […] of BRAF, i.e., […] (SEQ ID NO: 16). Peptide P10 is amino acids residues […] of BRAF, i.e., […] (SEQ ID NO: 17). These peptides bind to HLA-DR alleles using computer algorithms, as disclosed in Example 1 below. Proliferative responses were determined by standard ^3HTdR incorporation assay.
A number of such peptides were assayed as follows: Adherent monocytes (5×10^4/well) were pulsed for 8 hours with synthetic peptides (25 μM): Peptide 8 (SEQ ID NO:15), Peptide 9 (SEQ ID NO:16), and Peptide 10 (SEQ ID NO: 17). At the end of incubation, excess peptides were removed and the monocytes were cultured with one of three melanoma patient PBMC samples labeled WM35, WM3457 and 3451 (1×10^5) for 5 days.
Data are expressed as mean cpm (triplicate determinations) plus SD (bar) of ^3HTdR incorporation.

| Sequence | Proliferative response (3HTdR incorporation, mean cpm) versus control peptide |
| --- | --- |
| EDLTVKIGDFGLATV (listed as Homo sapiens) [Peptide 9] | Significantly (p<0.01) different values compared to control |
| SHQFEQLSGSILWHA (listed as Homo sapiens) [Peptide 8] | Significantly (p<0.01) different values compared to control |
